From ChEMBL document CHEMBL5518192, “Targeting aromatase to restrain oestrogen production and developing efficacious interventions against ER-positive cancer” (Eur J Med Chem, 2024) come the findings set out here.

Series [1] deals with T1, Aromatase (Homo sapiens, UniProt P11511).
T1 sequence (P11511 whole entry): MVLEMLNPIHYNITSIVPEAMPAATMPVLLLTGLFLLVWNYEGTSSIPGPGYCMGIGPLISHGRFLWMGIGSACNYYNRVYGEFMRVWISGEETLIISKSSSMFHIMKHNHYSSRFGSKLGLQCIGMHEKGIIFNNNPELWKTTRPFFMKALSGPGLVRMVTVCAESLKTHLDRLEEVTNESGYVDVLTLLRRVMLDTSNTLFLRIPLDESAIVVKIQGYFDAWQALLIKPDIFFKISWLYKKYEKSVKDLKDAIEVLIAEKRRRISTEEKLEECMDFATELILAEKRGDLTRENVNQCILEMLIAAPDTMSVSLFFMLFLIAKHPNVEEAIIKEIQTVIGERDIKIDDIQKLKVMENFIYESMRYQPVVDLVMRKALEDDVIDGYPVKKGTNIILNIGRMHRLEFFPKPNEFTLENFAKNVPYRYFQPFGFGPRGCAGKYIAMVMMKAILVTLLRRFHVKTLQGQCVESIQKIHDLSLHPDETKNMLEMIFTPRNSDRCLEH
Description: Inhibition of human aromatase preincubated for 10 mins followed by NADP+/fluorogenic substrate mixture addition and measured for 60 mins by fluorimetric assay

A further series can be described thus: physchem. The settings on record: octanol/water.
The subject of another series is MDA-MB-231. As to the kind of experiment: Growth inhibition of estrogen receptor negative human MDA-MB-231 cells at 10 uM incubated for 48 hrs by SRB assay relative to control. The class given is functional. The settings on record: read-out: GI.
The next series has as its system T47D. As to the kind of experiment: cells. As to conditions: Homo sapiens, 48 h, read-out: GI; call rule not given here.
A further series concerns MDA-MB-468. Put plainly: Growth inhibition of estrogen receptor negative human MDA-MB-468 cells at 10 uM incubated for 48 hrs by SRB assay relative to control. The settings on record: read-out: GI. The class given is functional.
Another series relates to MCF7. Put plainly: cells. As to conditions: Homo sapiens, MCF7, 48 h, read-out: GI.
For the next series, the system named is BT-549. Put plainly: cells. As to conditions: Homo sapiens, BT-549, 48 h, read-out: GI.
The next series relates to Hs-578T. As to the kind of experiment: cells. As to conditions: Homo sapiens, 48 h, read-out: GI.
The next series in a line: in vitro. As to conditions: human, plasma.
Series [2] has as its target T1, Aromatase. Put plainly: Binding affinity to human aromatase assessed as hyperchromic shift by measuring increase in absorbance intensity at 5 uM by UV-Vis spectral analysis.
Series [3] deals with T1, Aromatase. Put plainly: Binding affinity to human aromatase assessed as change in free energy.
The target in series [4] is T1, Aromatase. Put plainly: Binding affinity to human aromatase assessed as binding constant by Benesi-Hildebrand equation based analysis.
The target in series [5] is T2, Albumin (Homo sapiens, UniProt P02768). Put plainly: Binding affinity to human serum albumin assessed as binding constant by spectrophotometer. Type of series: ADME. The settings on record: isolated protein.
T2 sequence (P02768 whole entry): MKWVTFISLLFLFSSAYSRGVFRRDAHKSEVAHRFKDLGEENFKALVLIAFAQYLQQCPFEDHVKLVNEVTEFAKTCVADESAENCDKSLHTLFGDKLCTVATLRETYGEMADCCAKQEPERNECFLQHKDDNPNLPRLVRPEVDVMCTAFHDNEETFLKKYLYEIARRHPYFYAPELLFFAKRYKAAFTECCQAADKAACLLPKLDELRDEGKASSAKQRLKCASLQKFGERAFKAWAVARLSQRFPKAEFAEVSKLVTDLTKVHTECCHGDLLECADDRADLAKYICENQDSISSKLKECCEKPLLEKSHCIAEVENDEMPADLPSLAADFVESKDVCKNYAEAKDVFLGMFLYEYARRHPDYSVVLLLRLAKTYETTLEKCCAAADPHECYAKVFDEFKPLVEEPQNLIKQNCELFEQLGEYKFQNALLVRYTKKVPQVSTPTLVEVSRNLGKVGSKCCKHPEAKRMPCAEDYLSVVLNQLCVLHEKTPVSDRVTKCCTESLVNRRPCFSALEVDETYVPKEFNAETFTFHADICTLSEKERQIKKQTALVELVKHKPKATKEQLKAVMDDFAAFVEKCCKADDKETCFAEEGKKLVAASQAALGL
Series [6] addresses T1, Aromatase. As to the kind of experiment: Binding affinity to human aromatase assessed as inhibition constant by Cheng-Prosuff equation based analysis.
Series [7] concerns the target T1, Aromatase. As to the kind of experiment: Competitive inhibition of human aromatase using varying concentrations of androstenedione as substrate assessed as […] in Km with constant Vmax at 10 uM by Lineweaver-Burk equation based analysis.
The target of series [8] is T2, Albumin. As to the kind of experiment: Binding affinity to human serum albumin phosphate buffer at pH 7.4 assessed as conformational change in HSA by measuring increase in absorbance at 20 uM by UV-Vis absorption spectrum based analysis. The class given is ADME. As to conditions: isolated protein, pH 7.4, 20 µM.

Description for in vitro: Stability in human plasma assessed drug degradation at 50 uM measured after 120 mins by spectrometer
Description for physchem: Octanol/water partition coefficient, log P of the compound

At Aromatase [1], `COc1ccccc1/C(C)=C(/c1ccccc1)c1ccc(NCCCCn2cc(C(=O)C(=O)O)c3ccccc32)cc1` yielded an IC50 of 550 nM. This molecule also registered a logP in “physchem” of 4.29.

For `C/C(=C(\c1ccccc1)c1ccc(NCCCCCn2cc(C(=O)C(=O)O)c3ccccc32)cc1)c1cccc(Br)c1`, half-maximal inhibition against Aromatase [1] (IC50) required 800 nM. The logP in the series “physchem” came to 5.33.

`CCOC(=O)C(=O)c1cn(CCCCNc2ccc(/C(=C(/C)c3ccccc3OC)c3ccccc3)cc2)c2ccccc12` gave an IC50 at Aromatase [1] of 3200 nM. The molecule further registered a logP in “physchem” of 4.13.

As for `CC(=C(c1ccccc1)c1ccc(NCCn2cc(C(=O)C(=O)O)c3ccccc32)cc1)c1ccccc1`, the inhibition of growth at 10 µM in the series on MDA-MB-231 turned out to be 13.3%; in the series on T47D, 38.9%; with MDA-MB-468 it was 55.1%; in the series on MCF7, 47.3%; in the series with BT-549, 32.5%; with Hs-578T, 46.4%. For the same molecule, the IC50 against Aromatase [1] was determined as 9730 nM. In addition, in the series “physchem”, the logP turned out to be 4.43.

As to `CC(=C(c1ccccc1)c1ccc(NCCCCn2cc(C(=O)C(=O)O)c3ccccc32)cc1)c1ccccc1`, the inhibition of growth at 10 µM came out at 13.7% in the series with T47D; 12.9% with MDA-MB-468; 14.3% with MCF7; 40.2% in the series on BT-549; 60.2% in the series on Hs-578T. In addition, on Aromatase [1], the IC50 was determined as 1370 nM. The lipophilicity (logP) in “physchem” is 4.79.

Turning to `CCOC(=O)C(=O)c1cn(CCCCCNc2ccc(C(=C(C)c3ccccc3)c3ccccc3)cc2)c2ccccc12`, the inhibition of growth at 10 µM in the series on MDA-MB-231 is 18.2%; in the series on T47D, 30.1%; in the series with MDA-MB-468, 24.3%; with MCF7, 8.48%; in the series on Hs-578T, 6.04%. In addition, the metabolised at 2 h, 50 µM in “in vitro” is 15.5%. The outcome at Aromatase [2] and at Albumin [8] was Active. The deltaG at Aromatase [3] is recorded as -6.72 kcal/mol. The values for the Ka at Aromatase [4] and at Albumin [5] were 5.5 10^4/M and 2.8 10^4/M, respectively. Moreover, on Aromatase [6], the Ki was found to be 26 nM. Moreover, the “inhibition (INH)” value at Aromatase [7] is “Active”. The same molecule yielded an IC50 against Aromatase [1] of 54 nM. Also, the logP in “physchem” amounted to 4.81.

As to `CC(=C(c1ccccc1)c1ccc(NCCCn2cc(C(=O)C(=O)O)c3ccccc32)cc1)c1ccccc1`, the 50% inhibitory concentration (IC50) against Aromatase [1] came to 178 nM. Further, the values for the inhibition of growth at 10 µM with BT-549 and in the series on Hs-578T were 14.8% and 14.1%, respectively. In “physchem”, the lipophilicity (logP) came out at 4.61.

Consider `CCOC(=O)C(=O)Nc1ccc(/C(=C(/C)c2ccc(OC)cc2)c2ccccc2)cc1`, for which the outcome at Albumin [8] was Active.

On to `CCOC(=O)C(=O)Nc1ccc(/C(=C(/C)c2ccc(Cl)cc2)c2ccccc2)cc1`, for which the outcome at Albumin [8] was Active.

For `CC/C(=C(\c1ccccc1)c1ccc(OCCN(C)C)cc1)c1ccccc1` [TAMOXIFEN], the inhibition of growth at 10 µM with MDA-MB-231 is 54.8%; with MDA-MB-468, -13.3%; in the series on MCF7, -10.3%; in the series on BT-549 it was 30.2%; in the series on Hs-578T, 39.5%.

Regarding `N#Cc1ccc(C(c2ccc(C#N)cc2)n2cncn2)cc1` [LETROZOLE], in the series “physchem”, the logP amounted to 2.29.

As for `CCOC(=O)C(=O)c1cn(CCCCCCNc2ccc(C(=C(C)c3ccccc3)c3ccccc3)cc2)c2ccccc12`, on Aromatase [1], inhibition was half-maximal at 1940 nM (IC50). For the same molecule, the logP in “physchem” was 4.98.

`CCOC(=O)C(=O)c1cn(CCCCNc2ccc(C(=C(C)c3ccccc3)c3ccccc3)cc2)c2ccccc12`: the inhibition of growth at 10 µM in the series on T47D was 5.76%. Besides, the half-maximal inhibitory concentration (IC50) against Aromatase [1] was 500 nM. Further, the logP in the series “physchem” was determined as 4.63.

As to `CCOC(=O)C(=O)c1cn(CCCNc2ccc(C(=C(C)c3ccccc3)c3ccccc3)cc2)c2ccccc12`, the inhibition of growth at 10 µM was 13.6% with MDA-MB-231, 41% with T47D and 10.9% with MCF7. This molecule registered a 50% inhibitory concentration (IC50) on Aromatase [1] of 650 nM. Further, in the series “physchem”, the logP is 4.46.

With `CCOC(=O)C(=O)c1cn(CCCCCNc2ccc(/C(=C(/C)c3cccc(Br)c3)c3ccccc3)cc2)c2ccccc12`, on Aromatase [1], the IC50 stood at 790 nM. The lipophilicity (logP) in the series “physchem” amounted to 5.16.

`CCOC(=O)C(=O)c1cn(CCNc2ccc(C(=C(C)c3ccccc3)c3ccccc3)cc2)c2ccccc12` came in with an IC50 at Aromatase [1] of 1390 nM. This molecule registered a lipophilicity (logP) in “physchem” of 4.28.

`C/C(=C(\c1ccccc1)c1ccc(NCCCCn2cc(C(=O)C(=O)O)c3ccccc32)cc1)c1cccc(Br)c1` showed an IC50 against Aromatase [1] of 6800 nM. In “physchem”, this molecule yielded a logP of 5.15.

In turn, `CCOC(=O)C(=O)c1cn(CCCCCNc2ccc(/C(=C(/C)c3ccccc3OC)c3ccccc3)cc2)c2ccccc12` returned an IC50 against Aromatase [1] of 133 nM. This molecule also had a logP in the series “physchem” of 4.31.

`CCOC(=O)C(=O)c1cn(CCCCNc2ccc(/C(=C(/C)c3cccc(Br)c3)c3ccccc3)cc2)c2ccccc12`: at Aromatase [1], inhibition was half-maximal at 3860 nM (IC50). The same molecule registered a logP in the series “physchem” of 4.99.

As for `COc1ccccc1/C(C)=C(/c1ccccc1)c1ccc(NCCCCCn2cc(C(=O)C(=O)O)c3ccccc32)cc1`, half-maximal inhibition at Aromatase [1] (IC50) required 12300 nM. Moreover, the log partition coefficient (logP) in “physchem” stood at 4.46.

As for `CC(=C(c1ccccc1)c1ccc(NCCCCCn2cc(C(=O)C(=O)O)c3ccccc32)cc1)c1ccccc1`, the inhibition of growth at 10 µM is 13% in the series with T47D, 7.71% in the series on MDA-MB-468 and 12.4% in the series with Hs-578T. The same molecule gave an IC50 against Aromatase [1] of 3170 nM. This molecule also yielded a logP in “physchem” of 4.97.

For `CC(=C(c1ccccc1)c1ccc(NCCCCCCn2cc(C(=O)C(=O)O)c3ccccc32)cc1)c1ccccc1`, the logP in “physchem” came out at 5.15.
